Data reported in patent US6924314B2, “Compounds for the treatment of metabolic disorders” (Wellstat Therapeutics Corporation, priority 2001, dated 2005).

Assays:
db/db mice [1] = experiment: Antidiabetic effects in db/db mice, 2 weeks (Example I); format: in vivo, C57BL/Ksola mice; details: for Glucose / Glucose (% of Control): nonfasting; for Free Fatty Acids ± SEM / Triglycerides ± SEM: serum
Excerpt: (§1) db/db mice have a defect in leptin signaling, leading to hyperphagia, obesity and diabetes. Moreover, unlike ob/ob mice on a C57BL/6J background, db/db mice on a C57BL/KS background undergo failure of their insulin-producing pancreatic islet β cells, resulting in progression from hyperinsulinemia (associated with peripheral insulin resistance) to hypoinsulinemic diabetes.
(§2) A minimum of 7 days was allowed for adaptation after arrival.
Treatment cohorts were given daily oral doses of (1% hydroxypropylmethylcellulose), Compounds BI, BO, BP, BQ or BR for 2 weeks. At the end of the treatment period 100 μl of venous blood was withdrawn in a heparinized capillary tube from the retro-orbital sinus of db/db mice for serum chemistry analysis.

db/db mice [2] = experiment: Antidiabetic effects in db/db mice, 2 weeks (Example J); format: in vivo, C57BL/Ksola mice; details: for Glucose / Glucose (% of Control): nonfasting; for Free Fatty Acids ± SEM / Triglycerides ± SEM: serum, daily oral
Excerpt: as §1, with “islet” for “islet β”
as §2
Treatment cohorts were given daily oral doses of Vehicle (1% hydroxypropylmethylcellulose), Compounds BI, BS, BT, BU, BV or Fenofibrate for 2 weeks. At the end of the treatment period 100 μl of venous blood was withdrawn in a heparinized capillary tube from the retro-orbital sinus of db/db mice for serum chemistry analysis.

[3] = test system: ob/ob obese diabetic mice; experiment: Acute hypoglycemic effect in ob/ob obese diabetic mice: Experiment 1; format: in vivo
Protocol: Male ob/ob diabetic mice were randomized into groups of five animals each. Body weights were 50-55 g and blood glucose was approximately 300 mg/dL in the fed state. A single oral dose of a test substance suspended in 0.5% carboxymethylcellulose vehicle was administered by gavage. Blood glucose was measured in blood droplets obtained by nicking a tail vein with a razor using glucometer test strips and a Glucometer Elite XL device (Bayer) at 0, 0.5, 2, 4, 6 and 18 hours after the initial dosing. A 10% reduction in blood glucose versus oral vehicle is considered a positive screening result. Blood glucose reductions were generally maximal at 6 hours after drug administration.

[4] = test system: ob/ob obese diabetic mice; experiment: Acute hypoglycemic effect in ob/ob obese diabetic mice: Expt 2; format: in vivo; details: single oral dose 250 mg/kg; for change in vivo at 250 mg/kg: Mus musculus, 6 hours, read-out: % Reduction vs Control
Protocol: Male ob/ob mice (50-55 grams; blood glucose ˜300 mg/dL) were divided into groups of five animals each, and given a single oral dose of test drug (250 mg/kg) suspended in 0.5% carboxymethylcellulose vehicle; a control group received oral vehicle alone.
Six hours after oral administration of test drugs or vehicle (control), blood samples were obtained from a tail vein and glucose content was determined with a glucometer.

[5] = test system: high fat-fed C57Bl/6J mice; experiment: Circulating triglycerides, free fatty acids, insulin and leptin in high fat-fed C57Bl/6J mice; format: in vivo; details: for Free Fatty Acids / Triglycerides: after 2 weeks of drug treatments
Excerpt: The high fat-fed mouse is a model for the hypertriglyceridemia and high circulating fatty acid levels, and the insulin and leptin resistance that are found in people at risk for and with obesity, diabetes, cardiovascular disease and other disorders. Male C57Bl/6J mice, approximately 8 weeks of age, were randomly assigned into groups of 6 animals. […] Mice were fed a high-fat diet (diet number D12451, containing 45% of calories as fat (Research Diets, New Brunswick, N.J.)) for 6 weeks. […]

[6] = single oral dose by gavage, 6 hours

COc1cccc(OC)c1COc1cccc(C(=O)CCC(=O)O)c1 [BO, 4-(3-(2,6-Dimethoxybenzyloxy)phenyl)-4-oxobutyric acid]
Glucose (db/db mice [1]; 100 mg/kg daily oral): 586 ± 58 mg/dL | Glucose (% of Control) (db/db mice [1]; 100 mg/kg daily oral): 93 ± 9 % of Control | Free Fatty Acids ± SEM (db/db mice [1]; 100 mg/kg daily oral): 3766.3 ± 234.5 µM | Triglycerides ± SEM (db/db mice [1]; 100 mg/kg daily oral): 261.1 ± 24.3 mg/dL

Cc1cccc(C)c1COc1cccc(C(=O)CC(C)(C)C(=O)O)c1 [BP, 4-(3-(2,6-Dimethylbenzyloxy)phenyl)-4-oxo-2,2-dimethylbutyric acid]
Glucose (db/db mice [1]; 100 mg/kg daily oral): 629 ± 86 mg/dL | Glucose (% of Control) (db/db mice [1]; 100 mg/kg daily oral): 99 ± 14 % of Control | Free Fatty Acids ± SEM (db/db mice [1]; 100 mg/kg daily oral): 3772.6 ± 182.5 µM | Triglycerides ± SEM (db/db mice [1]; 100 mg/kg daily oral): 302.1 ± 28.1 mg/dL

O=C(O)CCC(=O)c1cccc(OCc2ccc(C(F)(F)F)cc2)c1 [BQ, 4-(3-(4-Trifluoromethylbenzyloxy)phenyl)-4-oxobutyric acid]
Glucose (db/db mice [1]; 100 mg/kg daily oral): 473 ± 49 mg/dL | Glucose (% of Control) (db/db mice [1]; 100 mg/kg daily oral): 75 ± 7 % of Control | Free Fatty Acids ± SEM (db/db mice [1]; 100 mg/kg daily oral): 2825.9 ± 110.9 µM | Triglycerides ± SEM (db/db mice [1]; 100 mg/kg daily oral): 131.6 ± 20.7 mg/dL

O=C(O)CCC(=O)c1cccc(OCC2CCC2)c1 [BR, 4-(3-((Cyclobutyl)-methoxy)phenyl)-4-oxobutyric acid]
Glucose (db/db mice [1]; 82 mg/kg daily oral): 703 ± 64 mg/dL | Glucose (% of Control) (db/db mice [1]; 82 mg/kg daily oral): 111 ± 10 % of Control | Free Fatty Acids ± SEM (db/db mice [1]; 82 mg/kg daily oral): 3653.4 ± 207.5 µM | Triglycerides ± SEM (db/db mice [1]; 82 mg/kg daily oral): 253.0 ± 32.0 mg/dL

Cc1cccc(C)c1COc1cccc(CCCC(=O)O)c1 [BS, 4-(3-(2,6-Dimethylbenzyloxy)phenyl)butyric acid]
Glucose (db/db mice [2]; 93 mg/kg daily oral): 372.0 ± 53.8 mg/dL | Glucose (% of Control) (db/db mice [2]; 93 mg/kg daily oral): 54 ± 8 % of Control | Free Fatty Acids ± SEM (db/db mice [2]; dose per Table 12: 93 mg/kg): 2867.4 ± 267.7 µM | Triglycerides ± SEM (db/db mice [2]; dose per Table 12: 93 mg/kg): 132.0 ± 15.2 mg/dL

COc1cc(C(=O)CCC(=O)O)ccc1OCc1c(C)cccc1C [BT, 4-[[4-(2,6-Dimethylbenzyloxy)-3-methoxy]phenyl]-4-oxobutyric acid]
Glucose (db/db mice [2]; 107 mg/kg daily oral): 684.3 ± 63.6 mg/dL | Glucose (% of Control) (db/db mice [2]; 107 mg/kg daily oral): 99 ± 9 % of Control | Free Fatty Acids ± SEM (db/db mice [2]; dose per Table 12: 107 mg/kg): 3897.7 ± 291.3 µM | Triglycerides ± SEM (db/db mice [2]; dose per Table 12: 107 mg/kg): 211.5 ± 21.5 mg/dL

COc1ccccc1COc1ccc(C(=O)CCC(=O)O)cc1 [Compound AB, 4-(4-(2-Methoxybenzyloxy)phenyl)-4-oxobutyric acid]
% Reduction vs Control [3, 6]: −39.1 ± 6.4% | Blood Glucose after 6 hours [3, 6]: 181 ± 19 mg/dL

O=C(O)CCC(=O)c1ccc(OCc2ccccn2)cc1 [Compound AF, 4-(4-((2-Pyridinyl)-methoxy)phenyl)-4-oxobutyric acid]
Blood Glucose after 6 hours [3, 6]: 314 ± 32 mg/dL | % Reduction vs Control ([3]; single oral dose, 6 hour reading normalized to initial blood glucose of this group, 416 ± 29 mg/dL): −24.6 ± 7.7 %

O=C(O)CCC(=O)c1ccc(OCc2ccccc2)cc1 [Compound AG, 4-(4-(Benzyloxy)phenyl)-4-oxobutyric acid]
% Reduction vs Control [3, 6]: −25.3 ± 7.7% | Blood Glucose after 6 hours [3, 6]: 222 ± 23 mg/dL

O=C(O)CCC(=O)c1ccc(OCc2ccccc2Cl)cc1 [Compound AI, 4-(4-(2-Chlorobenzyloxy)phenyl)-4-oxobutyric acid]
% Reduction vs Control [3, 6]: −14.1 ± 3.0% | Blood Glucose after 6 hours [3, 6]: 255 ± 9 mg/dL

O=C(O)CCC(=O)c1ccc(OCCc2ccccc2F)cc1 [Compound AJ, 4-(4-(2-(2-Fluorophenyl)ethoxy)phenyl)-4-oxobutyric acid]
% Reduction vs Control [3, 6]: −36.0 ± 4.7% | Blood Glucose after 6 hours [3, 6]: 190 ± 14 mg/dL

CCOC(=O)CCC(=O)c1ccc(OCc2ccccc2F)cc1 [Compound AK, Ethyl 4-(4-(2-fluorobenzyloxyl)phenyl)-4-oxobutyrate]
% Reduction vs Control [3, 6]: −29.3 ± 3.4% | Blood Glucose after 6 hours [3, 6]: 210 ± 10 mg/dL

Cc1ccccc1COc1ccc(C(=O)CCC(=O)O)cc1 [Compound AL, 4-(4-(2-Methylbenzyloxy)phenyl)-4-oxobutyric acid]
% Reduction vs Control [3, 6]: −43.4 ± 4.4% | Blood Glucose after 6 hours [3, 6]: 168 ± 13 mg/dL

Cc1ccccc1COc1cccc(C(=O)CCC(=O)O)c1 [Compound AN, 4-(3-(2-Methylbenzyloxy)phenyl)-4-oxobutyric acid]
change in vivo at 250 mg/kg [4]: -50.2 ± 4.5% | Blood Glucose after 6 hours [4]: 152 ± 11 mg/dL

CCOC(=O)CCC(=O)c1ccc(OCc2c(F)cccc2F)cc1 [Compound AQ, Ethyl 4-(4-(2,6-difluorobenzyloxyl)phenyl)-4-oxobutyrate]
change in vivo at 250 mg/kg [4]: -27.9 ± 4.2% | Blood Glucose after 6 hours [4]: 220 ± 17 mg/dL

O=C(O)CCC(=O)c1ccc(OCCc2cccs2)cc1 [Compound AR, 4-(4-(2-(2-Thienyl)ethoxy)phenyl)-4-oxobutyric acid]
change in vivo at 250 mg/kg [4]: -41.3 ± 4.2% | Blood Glucose after 6 hours [4]: 179 ± 14 mg/dL

O=C(O)CCC(=O)c1c(F)cccc1F [Compound AS, 4-(2,6-Difluorophenyl)-4-oxobutyric acid]
change in vivo at 250 mg/kg [4]: -45.2 ± 2% | Blood Glucose after 6 hours [4]: 167 ± 28 mg/dL

Cc1ccc(C)c(COc2ccc(C(=O)CCC(=O)O)cc2)c1 [Compound AT, 4-(4-(2,5-Dimethylbenzyloxy)phenyl)-4-oxobutyric acid]
change in vivo at 250 mg/kg [4]: -35.1 ± 2.3% | Blood Glucose after 6 hours [4]: 198 ± 28 mg/dL

O=C(O)CCC(=O)c1ccc(OCc2cc(F)ccc2F)cc1 [Compound AU, 4-(4-(2,5-Difluorobenzyloxy)phenyl)-4-oxobutyric acid]
change in vivo at 250 mg/kg [4]: -26.6 ± 2.8% | Blood Glucose after 6 hours [4]: 224 ± 26 mg/dL

O=C(O)CCC(=O)c1ccc(OCc2ccc(F)cc2F)cc1 [Compound AV, 4-(4-(2,4-Difluorobenzyloxy)phenyl)-4-oxobutyric acid]
change in vivo at 250 mg/kg [4]: -32.1 ± 3% | Blood Glucose after 6 hours [4]: 207 ± 23 mg/dL

O=C(O)CCC(=O)c1ccc(OCC2CC2)cc1 [Compound AX, 4-(4-((Cyclopropyl)-methoxy)phenyl)-4-oxobutyric acid]
change in vivo at 250 mg/kg [4]: -45.9 ± 2.4% | Blood Glucose after 6 hours [4]: 165 ± 23 mg/dL

O=C(O)CCC(=O)c1ccc(OCc2ccccc2C(F)(F)F)cc1 [Compound AY, 4-(4-(2-Trifluoromethylbenzyloxy)phenyl)-4-oxobutyric acid]
change in vivo at 250 mg/kg [4]: -39.3 ± 2.9% | Blood Glucose after 6 hours [4]: 185 ± 21 mg/dL

O=C(O)CCSCc1ccc(OCc2c(F)cccc2F)cc1 [Compound AZ, 3-[(4-(2,6-Difluorobenzyloxy)phenyl)-methylthio]propionic acid]
change in vivo at 250 mg/kg [4]: -39 ± 6.1% | Blood Glucose after 6 hours [4]: 186 ± 10 mg/dL

Cc1cccc(C)c1COc1cccc(C(=O)CCC(=O)[O-])c1.[Na+] [Compound BL, 4-(3-(2,6-Dimethylbenzyloxy)phenyl)-4-oxobutyric acid Sodium salt]
Free Fatty Acids ([5]; 10 mg/kg oral gavage): 1571.8 ± 100.9 µmol/L | Triglycerides ([5]; 10 mg/kg oral gavage): 80 ± 12.2 mg/dL | Free Fatty Acids ([5]; 30 mg/kg oral gavage): 1413.2 ± 228.7 µmol/L | Triglycerides ([5]; 30 mg/kg oral gavage): 66.4 ± 13.7 mg/dL | Free Fatty Acids ([5]; 100 mg/kg oral gavage): 1133.5 ± 132.7 µmol/L | Triglycerides ([5]; 100 mg/kg oral gavage): 41 ± 5.6 mg/dL | serum triglycerides and free fatty acids ([5]; oral gavage): effective at lowering | insulin serum levels ([5]; oral gavage, after 4 weeks of drug treatments (FIG. 1)): effective at lowering | leptin serum levels ([5]; oral gavage, after 4 weeks of drug treatments (FIG. 2)): effective at lowering

CC(C)OC(=O)C(C)(C)Oc1ccc(C(=O)c2ccc(Cl)cc2)cc1 [Fenofibrate, reference compound]
Glucose (db/db mice [2]; 113 mg/kg daily oral): 563.2 ± 49.0 mg/dL | Glucose (% of Control) (db/db mice [2]; 113 mg/kg daily oral): 81 ± 7 % of Control | Free Fatty Acids ± SEM (db/db mice [2]; dose per Table 12: 113 mg/kg): 3318.5 ± 208.7 µM | Triglycerides ± SEM (db/db mice [2]; dose per Table 12: 113 mg/kg): 109.3 ± 9.1 mg/dL

Cc1cccc(Nc2cc(Cl)nc(SCC(=O)O)n2)c1C [Wy14643, reference compound]
Free Fatty Acids ([5]; 10 mg/kg oral gavage): 1512.2 ± 172.9 µmol/L | Triglycerides ([5]; 10 mg/kg oral gavage): 70.6 ± 10.8 mg/dL | Free Fatty Acids ([5]; 30 mg/kg oral gavage): 1676 ± 237 µmol/L | Triglycerides ([5]; 30 mg/kg oral gavage): 88 ± 12.5 mg/dL | Free Fatty Acids ([5]; 100 mg/kg oral gavage): 1839.8 ± 154.8 µmol/L | Triglycerides ([5]; 100 mg/kg oral gavage): 88.4 ± 18.8 mg/dL
